Measurements: ChEMBL document CHEMBL1201862, “PubChem BioAssay data set” (2004)
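96-well plates; 48 h exposure; 5 concentrations. Endpoints by linear interpolation between flanking doses. Not reached: highest tested concentration assigned. Abbreviation: GI50, concentration required for 50% inhibition of growth.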 The source made the active and inactive calls. Rule as the data show it: active = GI50 up to about 1.1 µM and inactive = higher.

Assays:
Assay in all cases: NCI anticancer screen, dose series, 48 h
DU-145 = test system: DU-145
MOLT-4 = test system: MOLT-4
UACC-257 = test system: UACC-257
T47D = test system: T47D
SK-MEL-28 = test system: SK-MEL-28
A498 = test system: A498
MDA-N = test system: MDA-N
SK-OV-3 = test system: SK-OV-3
HOP-62 = test system: HOP-62
TK-10 = test system: TK-10
NCI/ADR-RES = test system: NCI/ADR-RES
MDA-MB-231 = test system: MDA-MB-231
CAKI-1 = test system: CAKI-1
RPMI-8226 = test system: RPMI-8226
HL-60 = test system: HL-60
NCI-H226 = test system: NCI-H226
BT-549 = test system: BT-549
HT-29 = test system: HT-29
SF-268 = test system: SF-268
SN12C = test system: SN12C
Hs-578T = test system: Hs-578T
UACC-62 = test system: UACC-62
ACHN = test system: ACHN
SR = test system: SR
SNB-19 = test system: SNB-19
CCRF-CEM = test system: CCRF-CEM
SK-MEL-2 = test system: SK-MEL-2
HCT-15 = test system: HCT-15
SF-539 = test system: SF-539
OVCAR-8 = test system: OVCAR-8
OVCAR-5 = test system: OVCAR-5
NCI-H23 = test system: NCI-H23
MCF7 = test system: MCF7
NCI-H460 = test system: NCI-H460
OVCAR-4 = test system: OVCAR-4
SK-MEL-5 = test system: SK-MEL-5
COLO 205 = test system: COLO 205
LOX IMVI = test system: LOX IMVI
EKVX = test system: EKVX
HOP-92 = test system: HOP-92
RXF 393 = test system: RXF 393
OVCAR-3 = test system: OVCAR-3
HCT-116 = test system: HCT-116
A549 = test system: A549
M14 = test system: M14
PC-3 = test system: PC-3
K562 = test system: K562
KM12 = test system: KM12
SF-295 = test system: SF-295
U-251 = test system: U-251
IGROV-1 = test system: IGROV-1
NCI-H522 = test system: NCI-H522
Malme-3M = test system: Malme-3M
786-0 = test system: 786-0
UO-31 = test system: UO-31
SW-620 = test system: SW-620
MDA-MB-435 = test system: MDA-MB-435
HCC 2998 = test system: HCC 2998
SNB-75 = test system: SNB-75

With CN1CC2=C(OC(N)=C(C#N)C2c2cccs2)/C(=C/c2cccs2)C1 (centres undefined) the GI50 (DU-145) was 23.4 µM (inactive), the GI50 (MOLT-4) was 2.43 µM (inactive) and the GI50 (UACC-257) was 9.53 µM (inactive). The GI50 (T47D) was 0.202 µM (active), the GI50 (SK-MEL-28) was > 57.9 µM (inactive) and the GI50 (A498) was 21.8 µM (inactive). For the same molecule, the GI50 (MDA-N) was 5.64 µM (inactive), the GI50 (SK-OV-3) was 55.7 µM (inactive) and the GI50 (HOP-62) was 19.3 µM (inactive). The GI50 (TK-10) was > 51.2 µM (inactive), the GI50 (NCI/ADR-RES) was 3.41 µM (inactive) and the GI50 (MDA-MB-231) was > 49 µM (inactive). The GI50 (CAKI-1) was 38.8 µM (inactive), the GI50 (RPMI-8226) was 4.45 µM (inactive) and the GI50 (HL-60) was 1.81 µM (inactive). For the same molecule, the GI50 (NCI-H226) was > 74.1 µM (inactive), the GI50 (BT-549) was 5.62 µM (inactive) and the GI50 (HT-29) was 12.7 µM (inactive). For the same molecule, the GI50 (SF-268) was 13.5 µM (inactive), the GI50 (SN12C) was 34.8 µM (inactive) and the GI50 (Hs-578T) was > 100 µM (inactive). The GI50 (UACC-62) was 19.7 µM (inactive), the GI50 (ACHN) was 2.43 µM (inactive) and the GI50 (SR) was 4.17 µM (inactive). For the same molecule, the GI50 (SNB-19) was > 59.3 µM (inactive), the GI50 (CCRF-CEM) was 5.52 µM (inactive) and the GI50 (SK-MEL-2) was > 35.1 µM (inactive). The GI50 (HCT-15) was 15.5 µM, the GI50 (SF-539) was 48.8 µM (inactive) and the GI50 (OVCAR-8) was 6.44 µM (inactive). The GI50 (OVCAR-5) was > 84.9 µM (inactive), the GI50 (NCI-H23) was 7.18 µM (inactive) and the GI50 (MCF7) was 0.223 µM (active). For the same molecule, the GI50 (NCI-H460) was 17.7 µM (inactive), the GI50 (OVCAR-4) was 5.52 µM (inactive) and the GI50 (SK-MEL-5) was 3.41 µM (inactive). The GI50 (COLO 205) was 9.08 µM (inactive), the GI50 (LOX IMVI) was 13.9 µM (inactive) and the GI50 (EKVX) was 6.01 µM (inactive). The GI50 (HOP-92) was 2.09 µM (inactive), the GI50 (RXF 393) was 10.1 µM (inactive) and the GI50 (OVCAR-3) was 15.8 µM (inactive). The GI50 (HCT-116) was 8.43 µM (inactive), the GI50 (A549) was 8.3 µM (inactive) and the GI50 (M14) was 13.1 µM (inactive). The GI50 (PC-3) was 5.31 µM (inactive), the GI50 (K562) was 10.3 µM (inactive) and the GI50 (KM12) was 9.12 µM (inactive). For the same molecule, the GI50 (SF-295) was 11.6 µM (inactive), the GI50 (U-251) was 8.59 µM (inactive) and the GI50 (IGROV-1) was 15.5 µM (inactive). The GI50 (NCI-H522) was 7.94 µM (inactive), the GI50 (Malme-3M) was 8.65 µM (inactive) and the GI50 (786-0) was 31.3 µM (inactive). For the same molecule, the GI50 (UO-31) was 34 µM (inactive), the GI50 (SW-620) was 42.8 µM (inactive) and the GI50 (MDA-MB-435) was 6.1 µM (inactive). The GI50 (HCC 2998) was 25.6 µM (inactive).

For O=C1C=CC2(C=C1)O[C@H](COCc1ccccc1)[C@@H](COCc1ccccc1)O2, the GI50 (DU-145) was 2.7 µM (inactive), the GI50 (MOLT-4) was 0.371 µM (active) and the GI50 (UACC-257) was 1.62 µM (inactive). For the same molecule, the GI50 (T47D) was 2.04 µM (inactive), the GI50 (SK-MEL-28) was 1.8 µM (inactive) and the GI50 (A498) was 19.9 µM (inactive). For the same molecule, the GI50 (MDA-N) was 1.52 µM (inactive), the GI50 (SK-OV-3) was 15.7 µM (inactive) and the GI50 (HOP-62) was 2.23 µM (inactive). The GI50 (TK-10) was 1.6 µM (inactive), the GI50 (NCI/ADR-RES) was 1.83 µM (inactive) and the GI50 (MDA-MB-231) was 3.65 µM (inactive). For the same molecule, the GI50 (CAKI-1) was 2.24 µM (inactive), the GI50 (RPMI-8226) was 0.42 µM (active) and the GI50 (HL-60) was 2.59 µM (inactive). The GI50 (NCI-H226) was 1.82 µM (inactive), the GI50 (BT-549) was 0.792 µM (active) and the GI50 (HT-29) was 2.34 µM (inactive). The GI50 (SF-268) was 1.64 µM (inactive), the GI50 (SN12C) was 1.65 µM (inactive) and the GI50 (Hs-578T) was 1.75 µM (inactive). For the same molecule, the GI50 (UACC-62) was 1.88 µM (inactive), the GI50 (ACHN) was 1.58 µM (inactive) and the GI50 (SR) was 0.251 µM (active). For the same molecule, the GI50 (SNB-19) was 2.92 µM (inactive), the GI50 (SK-MEL-2) was 1.71 µM (inactive) and the GI50 (HCT-15) was 1.24 µM. The GI50 (SF-539) was 1.97 µM (inactive), the GI50 (OVCAR-8) was 0.305 µM (active) and the GI50 (OVCAR-5) was 1.55 µM (inactive). The GI50 (NCI-H23) was 1.77 µM (inactive), the GI50 (MCF7) was 0.313 µM (active) and the GI50 (NCI-H460) was 18.8 µM (inactive). The GI50 (OVCAR-4) was 2.23 µM (inactive), the GI50 (SNB-75) was 4.54 µM (inactive) and the GI50 (SK-MEL-5) was 1.67 µM (inactive). The GI50 (COLO 205) was 1.72 µM (inactive), the GI50 (LOX IMVI) was 1.56 µM (inactive) and the GI50 (EKVX) was 1.59 µM (inactive). For the same molecule, the GI50 (HOP-92) was 1.01 µM (active), the GI50 (RXF 393) was 0.2 µM (active) and the GI50 (OVCAR-3) was 2.37 µM (inactive). The GI50 (HCT-116) was 0.235 µM (active), the GI50 (A549) was 15.3 µM (inactive) and the GI50 (M14) was 1.78 µM (inactive). The GI50 (PC-3) was 2.13 µM (inactive), the GI50 (K562) was 2.25 µM (inactive) and the GI50 (KM12) was 3.49 µM (inactive). For the same molecule, the GI50 (SF-295) was 16 µM (inactive), the GI50 (U-251) was 1.92 µM (inactive) and the GI50 (IGROV-1) was 1.61 µM (inactive). For the same molecule, the GI50 (Malme-3M) was 2.54 µM (inactive), the GI50 (786-0) was 0.627 µM (active) and the GI50 (UO-31) was 1.57 µM (inactive). For the same molecule, the GI50 (SW-620) was 0.271 µM (active) and the GI50 (MDA-MB-435) was 2.27 µM (inactive).
